Reference: ChEMBL document CHEMBL3885861, “Open TG-GATES”

Organism: Rattus norvegicus
Assay: Open TG-GATES - Regimen: Daily Repeat
Type: toxicity, organism-based, Sprague-Dawley
Design: regimen Daily Repeat, gender Male, age 6 weeks
Conditions: in vivo, po, 2000 mg/kg, route gavage, dose level High; for APTT / Bas / Eos / Fbg / Hb / Ht / Lym / MCH / MCHC / MCV / Mono / Neu / PT / Plat / RBC / Ret / WBC: tissue Blood; for KIDNEY_L / KIDNEY_R / KIDNEY_TOTAL: tissue Kidney; for LIVER: tissue Liver; for A/G / ALP / ALT / AST / BUN / CRE / Ca / Cl / DBIL / GLC / IP / K / LDH / Na / PL / RALB / TBIL / TC / TG / TP / gamma-GTP: tissue Plasma

COc1ccc(O)c(C(C)(C)C)c1.COc1ccc(O)cc1C(C)(C)C [BUTYLATED HYDROXYANISOLE]
TERMINAL_BW (72 h, time 3 day): 199.9 g
APTT (72 h, time 3 day): 18.9 s
Bas (72 h, time 3 day): 0.2%
Eos (72 h, time 3 day): 0.7%
Fbg (72 h, time 3 day): 288 mg/dL
Hb (72 h, time 3 day): 13.9 g/dL
Ht (72 h, time 3 day): 40.3%
Lym (72 h, time 3 day): 78.1%
MCH (72 h, time 3 day): 20.7 pg
MCHC (72 h, time 3 day): 34.6%
MCV (72 h, time 3 day): 59.8 fL
Mono (72 h, time 3 day): 2.8%
Neu (72 h, time 3 day): 17.5%
PT (72 h, time 3 day): 11.8 s
Plat (72 h, time 3 day): 152.4 x10_4/uL
RBC (72 h, time 3 day): 673.2 x10_4/ul
Ret (72 h, time 3 day): 2.1%
WBC (72 h, time 3 day): 93.2 x10_2/uL
KIDNEY_L (72 h, time 3 day): 0.9 g
KIDNEY_R (72 h, time 3 day): 0.9 g
KIDNEY_TOTAL (72 h, time 3 day): 1.8 g
LIVER (72 h, time 3 day): 12.3 g
A/G (72 h, time 3 day): 0.8
ALP (72 h, time 3 day): 1414.4 IU/L
ALT (72 h, time 3 day): 69.4 IU/L
AST (72 h, time 3 day): 76.4 IU/L
BUN (72 h, time 3 day): 14.2 mg/dL
CRE (72 h, time 3 day): 0.2 mg/dL
Ca (72 h, time 3 day): 10.9 mg/dL
Cl (72 h, time 3 day): 108.2 meq/L
DBIL (72 h, time 3 day): 0.036 mg/dL
GLC (72 h, time 3 day): 152 mg/dL
IP (72 h, time 3 day): 5.5 mg/dL
K (72 h, time 3 day): 3.6 meq/L
LDH (72 h, time 3 day): 70.2 IU/L
Na (72 h, time 3 day): 143 meq/L
PL (72 h, time 3 day): 197 mg/dL
RALB (72 h, time 3 day): 2.5 g/dL
TBIL (72 h, time 3 day): 0.09 mg/dL
TC (72 h, time 3 day): 113 mg/dL
TG (72 h, time 3 day): 106.4 mg/dL
TP (72 h, time 3 day): 5.5 g/dL
gamma-GTP (72 h, time 3 day): 2.8 IU/L
TERMINAL_BW ([…], time 7 day): 225.2 g
TERMINAL_BW ([…], time 14 day): 262.1 g
TERMINAL_BW ([…], time 28 day): 342.7 g
APTT ([…], time 7 day): 15.8 s
Bas ([…], time 7 day): 0.3%
Eos ([…], time 7 day): 0.5%
Fbg ([…], time 7 day): 316.8 mg/dL
Hb ([…], time 7 day): 13.2 g/dL
Ht ([…], time 7 day): 38.2%
Lym ([…], time 7 day): 76.9%
MCH ([…], time 7 day): 20.2 pg
MCHC ([…], time 7 day): 34.6%
MCV ([…], time 7 day): 58.3 fL
Mono ([…], time 7 day): 3.4%
Neu ([…], time 7 day): 18.2%
PT ([…], time 7 day): 11.6 s
Plat ([…], time 7 day): 176.3 x10_4/uL
RBC ([…], time 7 day): 655.8 x10_4/ul
Ret ([…], time 7 day): 4.1%
WBC ([…], time 7 day): 146.4 x10_2/uL
APTT ([…], time 14 day): 18.4 s
Bas ([…], time 14 day): 0.2%
Eos ([…], time 14 day): 0.6%
Fbg ([…], time 14 day): 295.6 mg/dL
Hb ([…], time 14 day): 13.6 g/dL
Ht ([…], time 14 day): 39.4%
Lym ([…], time 14 day): 71.9%
MCH ([…], time 14 day): 19.7 pg
MCHC ([…], time 14 day): 34.6%
MCV ([…], time 14 day): 56.9 fL
Mono ([…], time 14 day): 2.6%
Neu ([…], time 14 day): 23.8%
PT ([…], time 14 day): 12.1 s
Plat ([…], time 14 day): 130.9 x10_4/uL
RBC ([…], time 14 day): 693.8 x10_4/ul
Ret ([…], time 14 day): 3.8%
WBC ([…], time 14 day): 103.7 x10_2/uL
APTT ([…], time 28 day): 22.8 s
Bas ([…], time 28 day): 0.4%
Eos ([…], time 28 day): 0.7%
Fbg ([…], time 28 day): 317.2 mg/dL
Hb ([…], time 28 day): 14.7 g/dL
Ht ([…], time 28 day): 41.8%
Lym ([…], time 28 day): 75.1%
MCH ([…], time 28 day): 19 pg
MCHC ([…], time 28 day): 35.3%
MCV ([…], time 28 day): 53.8 fL
Mono ([…], time 28 day): 2.1%
Neu ([…], time 28 day): 21%
PT ([…], time 28 day): 12.5 s
Plat ([…], time 28 day): 129.2 x10_4/uL
RBC ([…], time 28 day): 778.2 x10_4/ul
Ret ([…], time 28 day): 2.2%
WBC ([…], time 28 day): 110.2 x10_2/uL
KIDNEY_L ([…], time 7 day): 0.9 g
KIDNEY_R ([…], time 7 day): 0.9 g
KIDNEY_TOTAL ([…], time 7 day): 1.8 g
KIDNEY_L ([…], time 14 day): 1 g
KIDNEY_R ([…], time 14 day): 1 g
KIDNEY_TOTAL ([…], time 14 day): 2 g
KIDNEY_L ([…], time 28 day): 1.2 g
KIDNEY_R ([…], time 28 day): 1.2 g
KIDNEY_TOTAL ([…], time 28 day): 2.4 g
LIVER ([…], time 7 day): 12.6 g
LIVER ([…], time 14 day): 15.3 g
LIVER ([…], time 28 day): 19.6 g
A/G ([…], time 7 day): 0.8
ALP ([…], time 7 day): 797 IU/L
ALT ([…], time 7 day): 44.8 IU/L
AST ([…], time 7 day): 61.2 IU/L
BUN ([…], time 7 day): 17 mg/dL
CRE ([…], time 7 day): 0.2 mg/dL
Ca ([…], time 7 day): 11.5 mg/dL
Cl ([…], time 7 day): 105.4 meq/L
DBIL ([…], time 7 day): 0.032 mg/dL
GLC ([…], time 7 day): 157 mg/dL
IP ([…], time 7 day): 7.7 mg/dL
K ([…], time 7 day): 3.4 meq/L
LDH ([…], time 7 day): 62.8 IU/L
Na ([…], time 7 day): 143.8 meq/L
PL ([…], time 7 day): 180 mg/dL
RALB ([…], time 7 day): 2.7 g/dL
TBIL ([…], time 7 day): 0.066 mg/dL
TC ([…], time 7 day): 102.6 mg/dL
TG ([…], time 7 day): 97.2 mg/dL
TP ([…], time 7 day): 6.1 g/dL
gamma-GTP ([…], time 7 day): 2.4 IU/L
A/G ([…], time 14 day): 0.8
ALP ([…], time 14 day): 1011.2 IU/L
ALT ([…], time 14 day): 39.4 IU/L
AST ([…], time 14 day): 59.2 IU/L
BUN ([…], time 14 day): 18.4 mg/dL
CRE ([…], time 14 day): 0.2 mg/dL
Ca ([…], time 14 day): 11.2 mg/dL
Cl ([…], time 14 day): 105.6 meq/L
DBIL ([…], time 14 day): 0.026 mg/dL
GLC ([…], time 14 day): 159.8 mg/dL
IP ([…], time 14 day): 6.2 mg/dL
K ([…], time 14 day): 3.4 meq/L
LDH ([…], time 14 day): 43.6 IU/L
Na ([…], time 14 day): 144.8 meq/L
PL ([…], time 14 day): 204.4 mg/dL
RALB ([…], time 14 day): 2.8 g/dL
TBIL ([…], time 14 day): 0.062 mg/dL
TC ([…], time 14 day): 108 mg/dL
TG ([…], time 14 day): 153.6 mg/dL
TP ([…], time 14 day): 6.2 g/dL
gamma-GTP ([…], time 14 day): 3 IU/L
A/G ([…], time 28 day): 0.7
ALP ([…], time 28 day): 696 IU/L
ALT ([…], time 28 day): 36.6 IU/L
AST ([…], time 28 day): 58 IU/L
BUN ([…], time 28 day): 19.8 mg/dL
CRE ([…], time 28 day): 0.2 mg/dL
Ca ([…], time 28 day): 11.3 mg/dL
Cl ([…], time 28 day): 104.8 meq/L
DBIL ([…], time 28 day): 0.022 mg/dL
GLC ([…], time 28 day): 174.8 mg/dL
IP ([…], time 28 day): 5.6 mg/dL
K ([…], time 28 day): 3.5 meq/L
LDH ([…], time 28 day): 58.2 IU/L
Na ([…], time 28 day): 145.8 meq/L
PL ([…], time 28 day): 198.8 mg/dL
RALB ([…], time 28 day): 2.8 g/dL
TBIL ([…], time 28 day): 0.068 mg/dL
TC ([…], time 28 day): 109 mg/dL
TG ([…], time 28 day): 121 mg/dL
TP ([…], time 28 day): 6.6 g/dL
gamma-GTP ([…], time 28 day): 2.6 IU/L
